Molecular target: taurine/α-ketoglutarate dioxygenase (TauD) (Escherichia coli, UniProt P37610)
Assay: UV difference absorption titration of apoprotein with global regression analysis
Assay type: binding

Chain of taurine/α-ketoglutarate dioxygenase (TauD) (P37610 2-283): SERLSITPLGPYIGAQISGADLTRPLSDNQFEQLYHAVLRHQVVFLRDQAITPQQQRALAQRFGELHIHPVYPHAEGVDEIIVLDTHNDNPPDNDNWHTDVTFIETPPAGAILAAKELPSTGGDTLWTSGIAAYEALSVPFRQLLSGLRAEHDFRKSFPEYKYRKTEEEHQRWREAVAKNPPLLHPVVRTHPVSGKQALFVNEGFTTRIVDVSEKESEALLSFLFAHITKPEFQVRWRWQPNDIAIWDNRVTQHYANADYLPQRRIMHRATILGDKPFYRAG

## NCCS(=O)(=O)O [taurine]
  Kd: 175 ± 10 µM

Reference: paper PMC2823959 (Analytical biochemistry, 2009)
